US20200093751A1, “CHEMOPROTECTIVE/CHEMOACTIVE NANODROPLETS AND METHODS OF USE THEREOF” (priority 2016, published 2020)

Key:
[1] = Toxicity / chemoprotective effect (body weight) in NCI-H460 tumor-bearing nude mice; format: in vivo
Procedure: When tumor volume reached approximately 50 mm^3, groups of tumor-bearing mice (n=5) were injected through the tail vein twice per week for a total of three weeks with a dose of 30 mg/kg per animal.
When tumor volume reached approximately 50 mm^3, groups of tumor-bearing mice (n=5) were injected through the tail vein twice per week for a total of three weeks with a dose of 30 mg/kg per animal of Tonp or once per week with a dose of 15 mg/kg per animal of TAXOTERE®.
The Tonp was injected one day before TAXOTERE® starting just before the second injection of TAXOTERE®.
Toxicity of the nanodroplet formulations was further assessed with respect to groups of mice with tumors. NCI-H460 human lung cancer cells were injected subcutaneously on the backs of nude mice to establish a tumor model. When tumor volume reached approximately 50 mm^3, mice were divided into treatment groups, which typically consisted of five mice. Mice were injected through the tail vein twice per week for three weeks with 30 mg/kg of Tonp or once per week with a dose of 15 mg/kg of TAXOTERE®.
One group of tumor-bearing mice was injected with TAXOTERE® through the tail vein once per week at a dose of 15 mg/kg per animal. […] Tonp, when used, was injected one day before TAXOTERE® starting just before the second injection of TAXOTERE®.

[2] = test system: NCI-H460 human lung cancer model; assay: Tumor growth inhibition in NCI-H460 human lung cancer model in nude mice; format: in vivo; conditions: TAXOTERE 15 mg/kg tail vein once per week, two injections; treatment ended on 13th day
Procedure: NCI-H460 cell suspensions were injected subcutaneously on the backs of mice to establish a tumor model. When tumor volume reached approximately 50 mm^3, groups of tumor-bearing mice (n=5) were injected through the tail vein once per week for a total of two weeks with a dose of 15 mg/kg per animal for TAXOTERE® or 30 mg/kg per animal twice per week for three weeks for Tonp nanodroplets. On the 20th day, the tumor growth inhibition of d-T3 (Tonp) treatment was 70%.
NCI-H460 cell suspensions were injected subcutaneously on the backs of mice to establish the tumor model. […] The Tonp was injected one day before TAXOTERE® starting just before the second injection of TAXOTERE®.
NCI-H460 human lung cancer cells were injected subcutaneously on the backs of nude mice to establish a tumor model. When tumor volume reached approximately 50 mm^3, mice were divided into treatment groups, which typically consisted of five mice.
In one experiment, tumor-bearing mice were either left untreated, were treated with TAXOTERE®, or were treated with Tonp nanodroplets. Mice were injected through the trail vein once per week with 15 mg/kg of TAXOTERE® or twice per week for three weeks with a dose of 30 mg/kg of Tonp.
One group of tumor-bearing mice was injected with TAXOTERE® through the tail vein once per week at a dose of 15 mg/kg per animal. […]

SMILES: CC(=O)O[C@@]12CO[C@@H]1C[C@H](O)[C@@]1(C)C(=O)[C@H](O)C3=C(C)[C@@H](OC(=O)[C@H](O)[C@@H](NC(=O)OC(C)(C)C)c4ccccc4)C[C@@](O)([C@@H](OC(=O)c4ccccc4)[C@H]21)C3(C)C [TAXOTERE®, docetaxel]
- body weight after about two weeks of treatment ([1]; TAXOTERE 15 mg/kg once per week): significantly decreased in body weight
- body weight after two injections of TAXOTERE ([1]; TAXOTERE 15 mg/kg once per week without Tonp, treatment ended on 13th day): severe body weight drop
- tumor growth inhibition [2]: 71%
